One may read the MIC as the lowest concentration found to suppress growth.

The test system of series [1] is C. albicans (yeast) ATCC 90028. In words: Antimicrobial growth inhibition (CO-ADD), C. albicans. The format is cell-based, Candida albicans. Here is the method:
(§1) Compounds 1−3 and 5−12 were assayed against a selection of medically important pathogenic microorganisms (MRSA, E. coli, K. pneumoniae, A. baumanii, P. aeruginosa, C. albicans, C. neoformans), Table 4. […] To the best of our knowledge this compound had not been tested against any drug resistant strain of Gram-positive bacterium until this study.
(§2) The antimicrobial activity testing was performed by the Community for Antimicrobial Drug Discovery (CO-ADD). Compounds were assayed against a range of both Gram negative and Gram positive bacteria (see Supplementary Materials S3) including methicillin-resistant Staphylococcus aureus (MRSA) (G+), Escherichia coli (G-), Klebsiella pneumoniae (G-), Acinetobacter baumannii (G-), Pseudomonas aeruginosa (G-) together with two species of fungus (Candida albicans and Cryptococcus neoformans).
(§3) S3. Antimicrobial activity testing methodology
The compounds submitted to CO-ADD were evaluated in duplicate (n = 2) against seven microorganisms (five bacteria and two fungi) at a concentration of 32 µg/mL in a 384-well, non-binding surface plate (NBS) for each bacterial/fungal strain, keeping the final DMSO concentration to a maximum of 1% DMSO. All bacteria were cultured in cation-adjusted […]
Fungal strains were cultured for 3 days on Yeast Extract-Peptone Dextrose (YPD) agar at 30 °C. A yeast suspension of 1 x 10^6 to 5 x 10^6 CFU/mL (as determined by OD530) was prepared from five colonies. The suspension was subsequently diluted and added to each well of the compound-containing plates giving a final cell density of fungi suspension of 2.5 x 10^3 CFU/mL and a total volume of 50 µL. All plates were covered and incubated at 35 °C for 24 h without shaking. […]
(§4) 2 h. The absorbance was measured using a Biotek Synergy HTX plate reader. The percentage of growth inhibition was calculated for each well, using negative control (medium only) and positive control (bacteria without inhibitors) on the same plate as the references. The significance of inhibition values was determined by modified Z-scores, calculated using the median and MAD of the samples (no controls) on the same plate. Samples with inhibition value above 80% and Z-score above 2.5 for either replicate (n = 2 on different plates) were classed as actives.
(§5) Colistin and vancomycin were used as positive bacterial inhibitor standards for Gram-negative and Gram-positive bac-teria, respectively. Fluconazole was used as a positive fungal inhibitor standard for C. albicans and C. neoformans. The antibiotics were provided in four concentrations, with two above and two below its MIC value, and plated into the first eight wells of column 23 of the 384-well NBS plates. The quality control (QC) of the assays was determined by the antimicrobial controls and the Z’-factor (using positive and negative controls). Each plate was deemed to fulfil the qual- […]
(§6) full growth inhibition at their highest concentration, and no growth inhibition at their lowest concentration. The seven […]
(§7) test microorganisms were Staphylococcus aureus MRSA (ATCC 43300), Escherichia coli (ATCC 25922), Klebsiella pneu-moniae (ATCC 700603), Acinetobacter baumanii (ATCC19606), Pseudomonas aeruginosa (ATCC 27853), Candida albicans (ATCC 90028) and Cryptococcus neoformans var. grubii (H99; ATCC 208821).
(§8) S4. Anthelmintic activity testing methodology
Dose-response evaluations were carried out to estimate the half-maximal inhibitory concentrations (IC50 values) for compounds against Haemonchus contortus (Haecon-5 strain) exsheathed third-stage larvae (xL3s). H. contortus were maintained in experimental sheep and procured in accordance with the institutional animal ethics guidelines and the regulations of Australia (permit no. 1714374; University of Melbourne). Immediately prior to use, third-stage larvae (L3s) were exsheathed and sterilised by incubation in 0.15% (v/v) bleach at 38 °C for 20 min, followed by washes in sterile saline at room temperature (22-24 °C). […]

Series [2] has as its system A. baumannii (G-) strain ATCC 19606. In words: Antimicrobial growth inhibition (CO-ADD), A. baumannii. The format is cell-based, Acinetobacter baumannii. As for the experimental part:
as §1, §2, §3
(§9) The compounds submitted to CO-ADD were evaluated in duplicate (n = 2) against seven microorganisms (five bacteria and two fungi) at a concentration of 32 µg/mL in a 384-well, non-binding surface plate (NBS) for each bacterial/fungal strain, keeping the final DMSO concentration to a maximum of 1% DMSO. All bacteria were cultured in cation-adjusted Mueller-Hinton broth (CAMHB) at 37 °C overnight. A sample of each culture was then diluted 40-fold in fresh broth and incubated at 37 °C for 1.5-3 h. The resultant mid-log phase cultures were diluted (CFU/mL measured by OD600), then added to each well of the compound containing plates, giving a cell density of 5x10^5 CFU/mL and a total volume of 50 µL. All the plates were covered and incubated at 37 °C for 18 h without shaking. […] Inhibition of bacterial growth was determined measuring absorbance at 600 nm (OD600) using a Tecan M1000 Pro mon-ochromator plate reader. […]
as §4, §5, §6, §7, §8
(§10) Dose-response evaluations were carried out to estimate the half-maximal inhibitory concentrations (IC50 values) for compounds against Haemonchus contortus (Haecon-5 strain) exsheathed third-stage larvae (xL3s). H. contortus were maintained in experimental sheep and procured in accordance with the institutional animal ethics guidelines and the regulations of Australia (permit no. 1714374; University of Melbourne). Immediately prior to use, third-stage larvae (L3s) were exsheathed and sterilised by incubation in 0.15% (v/v) bleach at 38 °C for 20 min, followed by washes in […]

The test system of series [3] is C. neoformans var. grubii strain ATCC 208821. In words: Antimicrobial growth inhibition (CO-ADD), C. neoformans. The format is cell-based. The settings on record: Cryptococcus neoformans, ATCC208821; var. grubii ATCC 208821; read-out: MIC C. neoformans.
For another series, the system named is human red blood cells. Nature of the series: Haemolysis assay (CO-ADD). The class given is cell-based.
The subject of series [4] is K. pneumoniae (G-) strain ATCC 700603. Nature of the series: Antimicrobial growth inhibition (CO-ADD), K. pneumoniae. The class given is cell-based, Klebsiella pneumoniae. Here is the method:
as §1, §2, §3, §9, §4, §5, §6, §7, §8, §10

The test system of series [5] is E. Coli (G-) strain ATCC 25922. Nature of the series: Antimicrobial growth inhibition (CO-ADD), E. coli. The class given is cell-based, Escherichia coli. As for the experimental part: as §1, §2, §3, §9, §4, §5, §6, §7, §8, §10
The mark [6] stands for this setting: 32 µg/mL, duplicate (n = 2) values.

Each structure is given as a SMILES string.

On to `COC1=C(Br)[C@H](O)[C@@]2(C=C1Br)CC(C(=O)NCCCOc1c(Br)cc(CCNC(=O)C3=NO[C@]4(C=C(Br)C(OC)=C(Br)[C@@H]4O)C3)cc1Br)=NO2` [Compound 5, 11,17-deoxyfistularin-3], for which the “% inhibition C. albicans” value in series [1] (setting [6]) is listed as 3.3%. The inhibition at 32 µg/mL in series [1] (Candida albicans, ATCC90028, read-out: % inhibition C. albicans, 32 µg/mL, duplicate (n = 2) values) came to 2.5%; in series [2] (Acinetobacter baumannii, ATCC19606, read-out: % inhibition A. baumannii, 32 µg/mL, duplicate (n = 2) values), 10.2%; in series [4] (Klebsiella pneumoniae, ATCC700603, read-out: % inhibition K. pneumoniae, 32 µg/mL, duplicate (n = 2) values), 6.5%; in series [5] (Escherichia coli, ATCC25922, read-out: % inhibition E. coli, 32 µg/mL, duplicate (n = 2) values), 8.1%. Besides, the MIC is greater than 32 µg/mL in series [1] (Candida albicans, ATCC90028, ATCC 90028, read-out: MIC C. albicans); greater than 32 µg/mL in series [2] (Acinetobacter baumannii, ATCC19606, ATCC 19606, read-out: MIC A. baumannii); greater than 32 µg/mL in series [3]; greater than 32 µg/mL in series [4] (Klebsiella pneumoniae, ATCC700603, ATCC 700603, read-out: MIC K. pneumoniae); greater than 32 µg/mL in series [5] (Escherichia coli, ATCC25922, ATCC 25922, MIC = concentration at which growth inhibited by ≥80%, read-out: MIC E. coli). Moreover, in series [2] (setting [6]), the “% inhibition A. baumannii” value is listed as 8.5%. Also, in the series on human red blood cells, the “Haemolysis (HC10)” value is on record as greater than 32 µg/mL. Also, the “% inhibition K. pneumoniae” value in series [4] (setting [6]) amounted to 8.7%. In addition, in series [5] (setting [6]), the “% inhibition E. coli” value is reported as 9.5%.
